Assay results published in patent publication US11760773B2, “Small molecule drug conjugates of gemcitabine monophosphate” (MaveriX Oncology, Inc., priority 2018, dated 2023).
Like-named read-outs stand apart in the source and are kept apart here.

How the values were obtained:
[1] = tested on: UT-SCC-5; experiment: Tumor cell proliferation (alamarBlue) cytotoxicity assay, UT-SCC-5; assay type: cell-based, human; conditions: Homo sapiens; UT-SCC-5, 72 hours treatment
Protocol: (§1) A tumor cell proliferation assay was used to determine cytotoxicity IC50 values for the phosphate prodrug Compounds 1-9, the parent non-phosphorylated SMDC parent compounds, and the effector (gemcitabine) across eight primary early-passage human head and neck squamous cell carcinoma cell lines including UT-SCC-5, UT-SCC-8, UT-SCC-9, UT-SCC-10, UT-SCC-14, UT-SCC-16A, UT-SCC-16B, and UT-SCC-24A.
(§2) UTSCC cells were seeded at 4000 cells/100 I/well on 96-well black clear-bottom tissue culture plate. Cells were incubated at 37° C. and 5% CO2 overnight to allow them to recover and re-attach. The next day cells were treated with the test compound (0-100 μM) for 72 hours. After treatment, cell proliferation was measured by Fluorescent quantitation of alamarBlue reagent. The alamarBlue assay incorporates a fluorometric/colorimetric growth indicator based on detection of metabolic activity. Specifically, resazurin, the active ingredient of alamarBlue reagent, is blue in color and virtually non-fluorescent. Upon entering cells, resazurin is reduced to resorufin, a compound that is red in color and highly fluorescent.
(§3) Continued cell growth maintains a reduced environment, therefore increasing the overall fluorescence and color of the media surrounding cells. The fluorescence intensity of alamarBlue reagent was directly proportional to cell number. To perform the alamarBlue assay, 10 I of alamarBlue reagent was added to each well and the plate was incubated at 37° C. for an additional 2 hour. Fluorescence intensity was measured at an excitation of 530 nm and an emission of 590 nm using a BioTek Synergy™ 2 microplate reader.
(§4) Cell proliferation assays in triplicate were performed at each concentration. The fluorescent intensity data were analyzed using the computer software, Graphpad Prism. In the absence of the compound, the fluorescent intensity (Ft) in each data set was defined as 100%. In the absence of cells, the fluorescent intensity (Fb) in each data set was defined as 0%. The percent cell in the presence of each compound was calculated according to the following equation: % cell=(F−Fb)/(Ft−Fb), where F=the fluorescent intensity in the presence of the compound, Fb=the fluorescent intensity in the absence of cells, and Ft=the fluorescent intensity in the absence of the compound. The values of % cell versus a series of compound concentrations were then plotted using non-linear regression analysis of Sigmoidal dose-response curve generated with the equation Y=B+(T−B)/1+10^((Log EC50-X)×Hill Slope) where Y=percent cell, B=minimum percent cell, T=maximum percent cell, X=logarithm of compound and Hill Slope=slope factor or Hill coefficient. The IC50 value was determined by the concentration causing a half-maximal percent activity.

[2] = Liver microsomal stability, human; assay type: in vitro ADME; conditions: for microsomal CLint: human, liver microsomes
[3] = Compound 1 and gemcitabine plasma PK in the male cynomolgus monkey (study h); assay type: in vivo; conditions: plasma
Protocol: Objectives: to compare the plasma pharmacokinetics and stability of the Compound 1 with Int 1-4 and in plasma following a single intravenous infusion administration of Compound 1 at 5 mg/kg and 10 mg/kg with equimolar gemcitabine at 2.28 mg/kg in male cynomolgous monkeys.
PK measurements: compare PK parameters C0, CL, Vdss, Cmax, tmax, t1/2, AUC(0-t), AUC(0-inf), MRT(0-t), MRT(0-inf) for Compound 1 and Int 1-4 with gemcitabine.

[4] = tested on: UT-SCC-16A; experiment: Tumor cell proliferation (alamarBlue) cytotoxicity assay, UT-SCC-16A; assay type: cell-based, human; conditions: Homo sapiens, 72 hours treatment
Protocol: as §1, §2, §3, §4

[5] = Metabolic stability in liver hepatocytes, monkey; assay type: in vitro ADME
[6] = tested on: UT-SCC-8; experiment: Tumor cell proliferation (alamarBlue) cytotoxicity assay, UT-SCC-8; assay type: cell-based, human; conditions: Homo sapiens; UT-SCC-8, 72 hours treatment
Protocol: as §1, §2, §3, §4

[7] = tested on: UT-SCC-9; experiment: Tumor cell proliferation (alamarBlue) cytotoxicity assay, UT-SCC-9; assay type: cell-based, human; conditions: Homo sapiens; UT-SCC-9, 72 hours treatment
Protocol: as §1, §2, §3, §4

[8] = Metabolic stability in liver hepatocytes, rat; assay type: in vitro ADME
[9] = Metabolic stability in liver hepatocytes, human; assay type: in vitro ADME
[10] = Int 1-4 plasma PK in the male cynomolgus monkey (study f); assay type: in vivo; conditions: for MRT inf: read-out: MRT0-inf; for MRT last: read-out: MRT0-last; for Vd: read-out: Vdss
Protocol: Objectives: to compare the plasma pharmacokinetics and stability of Int 1-4 in plasma following single intravenous infusion administration of Int 1-4 at 5 mg/kg and 10 mg/kg in the male cynomolgus monkey
PK measurements: compare PK parameters C0, CL, Vdss, Cmax, tmax, t, AUC(0-t), AUC(0-inf), MRT(0-t), MRT(0-inf) for Int 1-4

[11] = tested on: UT-SCC-14; experiment: Tumor cell proliferation (alamarBlue) cytotoxicity assay, UT-SCC-14; assay type: cell-based, human; conditions: Homo sapiens; UT-SCC-14, 72 hours treatment
Protocol: as §1, §2, §3, §4

[12] = Plasma PK of Int 3-3 in CD-1 mice (study c); assay type: in vivo; conditions: after iv Int 3-3 8.8 mg/kg
Protocol: Objectives: to determine the plasma pharmacokinetics of Int 3-3 following a single intravenous infusion of Int 3-3 at 8.83 mg/kg in CD-1 mice
PK measurements: compare PK parameters C0, CL, Vdss, Cmax, tmax, t1/2, AUC(0-t), AUC(0-inf), MRT(0-t), MRT(0-inf) for Int 3-3.

[13] = Comparative dog plasma PK of Int 1-4 versus gemcitabine (study k); assay type: in vivo; conditions: male beagle dog, after iv gemcitabine 5.29 mg/kg
[14] = in the clinic; cited from earlier work
[15] = negative value indicates compound is stable, read-out: t1/2 mean ± SE
[16] = after iv Int 1-4 5 mg/kg (study f)
[17] = after iv Int 1-4 10 mg/kg (study f)
[18] = after iv gemcitabine 2.28 mg/kg

In the case of `COc1cc(OC)c2oc(COC(=O)Nc3ccn([C@@H]4O[C@H](CO)[C@@H](O)C4(F)F)c(=O)n3)cc2c1` [Int 1-4, (5,7-di(methoxy)benzofuran-2-yl)methyl (1-((2R,4R,5R)-3,3-difluoro-4-hydroxy-5-(hydroxymethyl)tetrahydrofuran-2-yl)-2-oxo-1,2-dihydropyrimidin-4-yl)carbamate], the IC50 [1] is reported as 16 nM, the half-life ([2]; human liver microsomes) is reported as 1850 min and the “Compound Remaining (% of 0 min) 0 min” value ([2]; human liver microsomes, 0 min) is reported as 100 % of 0 min. For the same molecule, the “Compound Remaining (% of 0 min) 5 min” value ([2]; human liver microsomes, 5 min) was 111 % of 0 min, the “Compound Remaining (% of 0 min) 15 min” value ([2]; human liver microsomes, 15 min) was 94.0 % of 0 min and the “Compound Remaining (% of 0 min) 30 min” value ([2]; human liver microsomes, 30 min) was 107 % of 0 min. For the same molecule, the “Compound Remaining (% of 0 min) 45 min” value ([2]; human liver microsomes, 45 min) was 99.9 % of 0 min, the “Compound Remaining (% of 0 min) control” value ([2]; human liver microsomes, control) was 102 % of 0 min and the microsomal CLint [2] was 0.747 µL/min/mg. It also gave a microsomal CLint ([2]; text value) of 0.75 µL/min/mg, an AUC(0-t) ([3]; after iv Compound 1 5 mg/kg) of 4380 ng·h/mL and a half-life ([3]; after iv Compound 1 5 mg/kg) of 45.6 min. For the same molecule, the AUC(0-inf) ([3]; after iv Compound 1 5 mg/kg, read-out: AUC0-inf) was 4400 ng·h/mL, the MRT inf ([3]; after iv Compound 1 5 mg/kg, read-out: MRT0-inf) was 22.2 min and the MRT last ([3]; after iv Compound 1 5 mg/kg, read-out: MRT0-last) was 21.6 min. For the same molecule, the IC50 [4] was 138 nM, the “Slope Mean ± SE” value [5] was −0.005018 ± 0.001425 and the half-life [5, 15] was 138 ± 39.2 min. For the same molecule, the IC50 [6] was 32 nM, the IC50 [7] was 39 nM and the “Slope Mean ± SE” value [8] was −0.007701 ± 0.001794. For the same molecule, the half-life [8, 15] was 90 ± 21 min, the “Slope Mean ± SE” value [9] was −0.003031 ± 0.001361 and the half-life ([9]; read-out: t1/2 mean ± SE) was 229 ± 103 min. The AUC(0-inf) [10, 16] was 5470 ng·h/mL, the AUC(0-t) [10, 16] was 5460 ng·h/mL and the clearance [10, 16] was 15.4 mL/min/kg. It also gave a half-life [10, 16] of 43.8 min, a C0 ([10]; after iv Int 1-4 5 mg/kg (study f), read-out: C0) of 81000 ng/mL and an MRT inf [10, 16] of 19.8 min. The MRT last [10, 16] was 18.6 min, the Vd [10, 16] was 0.301 L/kg and the AUC(0-inf) [10, 17] was 17400 ng·h/mL. For the same molecule, the AUC(0-t) [10, 17] was 17400 ng·h/mL, the clearance [10, 17] was 9.65 mL/min/kg and the half-life [10, 17] was 55.8 min. The C0 ([10]; after iv Int 1-4 10 mg/kg (study f), read-out: C0) was 166000 ng/mL, the MRT inf [10, 17] was 26.4 min and the MRT last [10, 17] was 25.8 min. It also gave a Vd [10, 17] of 0.253 L/kg and an IC50 [11] of 13 nM.
With `O=c1ccn(C2OC(CO)C(O)C2(F)F)c(=O)[nH]1` (centres unmarked) [dFdU] the AUC0-last ([3]; after iv Compound 1 5 mg/kg) was 3397 ng·h/mL, the AUC(0-inf) ([3]; after iv Compound 1 5 mg/kg) was 8767 ng·h/mL and the Cmax ([3]; after iv Compound 1 5 mg/kg) was 321 ng/mL. It also gave an MRT0-inf ([3]; after iv Compound 1 5 mg/kg) of 34.42 h, an MRT0-last ([3]; after iv Compound 1 5 mg/kg) of 539 min and a Tmax ([3]; after iv Compound 1 5 mg/kg) of 23.4 min. For the same molecule, the t1/2 ([3]; after iv Compound 1 5 mg/kg) was 1440 min, the AUC0-last [3, 18] was 12467 ng·h/mL and the AUC(0-inf) [3, 18] was 17600 ng·h/mL. It also gave a Cmax [3, 18] of 2153 ng/mL, an MRT0-inf [3, 18] of 18.06 h and an MRT0-last [3, 18] of 493 min. The Tmax [3, 18] was 2.4 min, the t1/2 [3, 18] was 774 min and the AUC0-inf/AUC0-last [12] was 146%. It also gave an AUC0-last [12] of 942 ng·h/mL, an AUC(0-inf) [12] of 1403 ng·h/mL and a Cmax [12] of 168 ng/mL. For the same molecule, the MRT0-inf [12] was 449 min, the MRT0-last [12] was 220 min and the T1/2 [12] was 313 min. For the same molecule, the Tmax [12] was 240 min, the t1/2 [13] was 513 min and the C0 [10, 16] was 296 ng/mL. The MRT0-last [10, 16] was 30.60 h, the t1/2 [10, 16] was 40.2 min and the C0 [10, 17] was 747 ng/mL. The MRT0-last [10, 17] was 63.00 h, the t1/2 [10, 17] was 45 min and the “share of the dose recovered in urine found as this species” value [14] was 99%.
